Columns and labels:
[1] = Solubility in water (excess of compound in 4 ml demi water); assay type: physicochemical; details: for Solubility: Table E5.2, water
Experimental: Solubility is preferably solubility in aqueous solution, more preferably solubility in water, most preferably solubility in demineralised water. A skilled person knows how to assess such solubility.
Solubility in water was determined by preparing mixtures of an excess of compound dispersed in 4 ml demi water using a vortex at maximum speed for 1 min. […] 1 ml of the mixture was concentrated in vacuo to yield a solid. The mass of the solid was determined in mg to calculate the solubility in percentage by dividing by ten.

[2] = Foaming abilities, 1% compound solutions shaken by hand; assay type: physicochemical; parameters: key to FOAM: −: no foam formation; +: low foam formation; ++: moderate foam formation; +++: strong foam formation
Experimental: Foaming abilities were evaluated at room temperature by shaking 1% compound solutions (2 ml) of pH 3, 7, and 12 by hand for 10 s. The pH of each solution was assessed with a pH meter at room temperature. […] The foam heights at the initial time were compared to one another after which the foaming abilities were classified according to no foam formation (−), low foam formation (+), moderate foam formation (++), and strong foam formation (+++).

[3] = Foaming power and stability, Ultra-Turrax, 0.4% aq. surfactant; assay type: physicochemical; details: for Foamability (mL) after (min) 1 / Foamability (mL) after (min) 5 / Foamability (mL) after (min) 10: Table E5.2; for Foamability (mL) after (min) 1: foam volume after 1 min; for Foamability (mL) after (min) 5: foam volume after 5 min; for Foamability (mL) after (min) 10: foam volume after 10 min
Experimental: Foaming power was also tested at room temperature with 5 mL of 0.4% aq. surfactant (20 mg) solution in a 50 mL measuring cylinder. After performing the Ultra-Turrax (a registered trademark for a high-performance dispersing instrument) for 20 seconds (8000 rpm), the initial height of the foam was measured for foam height. (volume in mL). Every time step of, 1, 3, 5, 10, 30, 60 minutes was noted. In addition, after 24 hours the stability was checked. Particularly, foaming power and stability of the surfactants were performed using an IKA Ultra-Turrax T25 with an 18 G dispersing element. At room temperature, an aqueous solution of 5 mL 0.4% surfactant in a 50 mL measuring cylinder (2.20 cm diameter) was mixed with the Ultra-Turrax for 20 seconds at 8000 rpm. The foam height (volume in mL) was denoted for 0, 1, 3, 5, 10, 30, 60 min and 24 hours. In addition, after 24 hours the stability was checked.

[4] = Surface tension measurements, Wilhelmy plate (surface tension, CMC); assay type: physicochemical
Experimental: Surface tension measurements were performed with a Biolin Scientific Sigma701 automatic tension meter equipped with a Wilhelmy plate made of platinum (±0.5 mN/m). […] The number of experimental points is related to the compound's/surfactant's solubility and available quantity. All compound/surfactant solutions were allowed to stand 12 h before being measured. The platinum plate was thoroughly cleaned with demi water and flame-dried before each measurement. The CMC of each compound/surfactant was determined at the minimum of a breakpoint of a conventional plot of surface tension versus compound/surfactant concentration. DCMC was obtained by acquiring the surface tension at the CMC. The pC20 value was determined by taking the minus log of the concentration compound/surfactant at a surface tension of 52 mN/m.

Zein = Zein solubilisation (skin irritation potential); details: SDS set as 100; for zein score / skin irritation potential value: pH 7
Experimental: Zein solubilisation was measured to determine the irritation of the surfactants. Zein is a simple protein found in corn. It is a very simple mimic of skin protein, the more solubilised by your material the harsher the potential to irritate and dry the skin. This method is a quick screen and provides indicative data. The procedure is 1) Weight 2-2.5 ml Eppendorf's on a 4 dp balance. 2) Weight out as accurately as possible 70 mg of Zein. 3) Add to the Eppendorf and reweigh. 4) Make your surfactant dilutions. 5) Add 1 ml of the surfactant dilution to the Eppendorf. 6) Place this on a rotary mixer for 20 mins at 20 rpm at RT. 7) Remove and centrifuge for 4 mins at highest speed available on a micro centrifuge 8) Discard the supernatant making sure as much of it possible is removed. 9) Repeat with water, centrifuge and discard supernatant. 10) With the Eppendorf lid open, place at 50° C. overnight to dry (48 hours required). 11) Re-weigh the next day. 12) Calculate the amount of Zein solubilised. The obtained data allows comparison of surfactants and their harshness to skin. Decisions for in vivo testing can be based on good Zein results.
The skin irritation potential of the surfactants was investigated using zein solubilisation, which is a commonly known assay. Zein is a very simple mimic of skin protein. The more zein is solubilized by the surfactant the harsher the potential to irritate and dry the human skin. […] The surfactants were measured at different pH values, a pH of 4-5, 7 and at their original pH as is.

[5] = test system: activated sludge from a municipal wastewater treatment plant (WWTP); test: Biodegradability, OECD 301A DOC Die-Away Test (adjusted); details: inoculum with compound and sodium acetate
Experimental: Biodegradability of compounds was assessed. The compound is added to an inoculate of activated sludge from a municipal wastewater treatment plant (WWTP). The experiment relies on the basic principles of the 301A DOC Die-Away Test described in the OECD guidelines for readily biodegradable substances. A small adjustment was made where the measuring is not done in conical flasks but, instead, in serum vials closed with butylrubber stoppers. This allowed measurement of the evolution of CO2 and O2 over time. In general, the experiment involves the experimental incubation (inoculum and compound), along with a blank control (inoculum no compound), a positive control (inoculum and sodium acetate), and controls for abiotic degradation (compound in medium), adsorption (compound with sterilized inoculum), and toxicity (inoculum with compound and sodium acetate).
The fresh sludge was conditioned overnight by bubbling with air at room temperature. […]
Incubations were prepared containing approximately 70 mg/L surfactant and 3 ml sludge in a final volume of 30 ml mineral medium in a borosilicate serum vial crimp-sealed with a butyl rubber stopper. […] 1 ml samples were taken weekly for surfactant quantification and centrifuged 5 min at 20.000×g. […] CO2 was analyzed by measuring headspace gas on an Agilent 8890A/5977B GC-MS equipped with an Agilent 6 FT Porapak Q 80/10 column. […]

Compound: CCCCCCCCN(C)C[C@H](O)[C@@H](O)[C@@H](O)[C@H](O)C(=O)O [Compound 31, N-methyl-N-octyl-D-galacturonic acid amine]
- solubility in H2O [1]: 15%
- SOLUBILITY (H2O) ([1]; Table E5): 15%
- Solubility [1]: 15%
- FOAM ([2]; Table E5, pH > 7.3): ++
- Foamability (mL) after (min) 1 [3]: 4.5 mL
- Foamability (mL) after (min) 5 [3]: 4 mL
- Foamability (mL) after (min) 10 [3]: 4 mL
- CMC (%) ([4]; Table E5): 1.15%
- SURFACE TENSION ([4]; Table E5, room temperature, pH 7): 32.067 mN/m
- CMC (%) ([4]; Table E5.2): 1.15%
- Surface tension (nM/m) ([4]; Table E5.2): 32.1 mN/m
- SURFACE TENSION ([4]; running text b302): 31.5 mN/m
- zein score / skin irritation potential value (Zein): 1
- inhibition of breakdown of acetate (toxicity control) [5]: did not inhibit

Compound: sodium laureth sulfate [SLES, reference compound]
- Solubility [1]: 28%
- SOLUBILITY (H2O) ([1]; Table E7, commercially available surfactants): Yes
- Solubility (%) ([1]; Table E8): 28%
- FOAM ([2]; Table E7): ++
- Foamability (mL) after (min) 1 [3]: 4 mL
- Foamability (mL) after (min) 5 [3]: 4 mL
- Foamability (mL) after (min) 10 [3]: 3 mL
- Foamability 1 min ([3]; Table E8, after 1 min): 4 mL
- Foamability 5 min ([3]; Table E8, after 5 min): 4 mL
- Foamability 30 min ([3]; Table E8, after 30 min): 3 mL
- concentration at which the surface tension is reached [4]: 0.02%
- CMC (%) ([4]; Table E5.2): 0.2%
- Surface tension (nM/m) ([4]; Table E5.2): 33.8 mN/m
- CMC (%) ([4]; Table E7): 0.2%
- SURFACE TENSION ([4]; Table E7): 36.5 mN/m
- CMC (%) ([4]; Table E8): 0.2%
- Surface tension (nM/m) ([4]; Table E8): 33.8 mN/m
- zein score / skin irritation potential value (Zein): 49
- skin irritation potential value (zein) (Zein; pH11): > 49

Source: US20260008801A1, “BIO-BASED SURFACTANTS DERIVED FROM CARBOHYDRATES” (COÖPERATIE KONINKLIJKE COSUN U.A., priority 2022, published 2026)
